# Laboratory results from ChEMBL document CHEMBL1909046, “DrugMatrix in vitro pharmacology data”.
# What was measured:
# Substance-K receptor = biological target: T1, Substance-K receptor (Homo sapiens, UniProt P21452); format: cell membranes, CHO, Membrane; further: in other assays of this panel Not Active means under 50% inhibition at 10 µM
# T1 sequence (P21452 whole entry): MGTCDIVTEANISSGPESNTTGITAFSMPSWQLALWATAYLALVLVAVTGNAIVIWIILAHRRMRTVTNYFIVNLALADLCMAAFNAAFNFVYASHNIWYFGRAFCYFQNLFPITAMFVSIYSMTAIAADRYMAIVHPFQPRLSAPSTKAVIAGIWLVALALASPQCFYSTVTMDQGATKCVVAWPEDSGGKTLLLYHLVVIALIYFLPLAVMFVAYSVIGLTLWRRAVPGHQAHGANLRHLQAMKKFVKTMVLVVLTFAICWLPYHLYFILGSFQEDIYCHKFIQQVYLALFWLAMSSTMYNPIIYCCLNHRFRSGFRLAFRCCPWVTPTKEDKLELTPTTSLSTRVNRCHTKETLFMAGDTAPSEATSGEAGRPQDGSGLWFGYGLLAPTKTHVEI
# [1] = DRUGMATRIX: Interleukin IL-1 radioligand binding (ligand: [125I] interleukin 1beta); format: cell membranes, Membrane; conditions: nih3t3; Not Active = under 50% inhibition at 10 µM
# Cytochrome P450 1A2 = biological target: T2, Cytochrome P450 1A2 (Homo sapiens, UniProt P05177); conditions: bti-tn-5b1-4; further: in other assays of this panel Not Active means under 50% inhibition at 10 µM
# T2 sequence (P05177 whole entry): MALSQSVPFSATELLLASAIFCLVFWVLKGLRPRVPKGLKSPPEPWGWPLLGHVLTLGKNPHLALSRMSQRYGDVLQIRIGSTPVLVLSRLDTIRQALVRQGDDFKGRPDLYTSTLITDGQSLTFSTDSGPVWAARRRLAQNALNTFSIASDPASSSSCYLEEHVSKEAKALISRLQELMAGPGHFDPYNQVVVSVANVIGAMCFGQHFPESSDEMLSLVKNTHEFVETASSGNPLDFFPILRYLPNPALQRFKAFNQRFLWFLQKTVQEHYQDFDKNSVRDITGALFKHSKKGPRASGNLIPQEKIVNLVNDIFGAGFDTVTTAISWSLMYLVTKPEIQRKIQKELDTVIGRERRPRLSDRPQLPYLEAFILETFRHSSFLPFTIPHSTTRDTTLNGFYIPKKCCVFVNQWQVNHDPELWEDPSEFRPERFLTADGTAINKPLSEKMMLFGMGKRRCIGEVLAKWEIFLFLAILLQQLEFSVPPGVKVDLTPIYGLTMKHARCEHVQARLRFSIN
# [2] = DRUGMATRIX: Platelet-Derived Growth Factor (PDGF) radioligand binding (ligand: [125I] PDGF); format: cell-based; conditions: nih3t3; Not Active = under 50% inhibition at 10 µM
# [3] = DRUGMATRIX: Tumor Necrosis Factor (TNF), Non-Selective radioligand binding (ligand: [125I] TNF-alpha); format: cell membranes, Membrane; conditions: u-937; Not Active = under 50% inhibition at 10 µM
# [4] = biological target: T3, C-X-C chemokine receptor type 2 (Homo sapiens, UniProt P25025); format: cell membranes, Membrane; conditions: cho-k1; further: in other assays of this panel Not Active means under 50% inhibition at 10 µM
# T3 sequence (P25025 whole entry): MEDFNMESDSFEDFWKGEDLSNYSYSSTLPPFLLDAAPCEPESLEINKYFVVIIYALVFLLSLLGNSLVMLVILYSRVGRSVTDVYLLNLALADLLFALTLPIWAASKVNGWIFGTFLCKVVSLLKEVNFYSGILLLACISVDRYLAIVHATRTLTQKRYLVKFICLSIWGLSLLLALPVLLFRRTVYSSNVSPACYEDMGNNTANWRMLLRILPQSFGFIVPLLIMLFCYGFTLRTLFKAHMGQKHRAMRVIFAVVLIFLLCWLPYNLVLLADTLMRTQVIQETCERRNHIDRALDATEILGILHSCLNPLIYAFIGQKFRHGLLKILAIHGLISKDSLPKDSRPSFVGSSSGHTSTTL
# [5] = biological target: T4, Muscarinic acetylcholine receptor M5 (Homo sapiens, UniProt P08912); format: cell membranes, CHO-K1, Membrane; further: in other assays of this panel Not Active means under 50% inhibition at 10 µM
# T4 sequence (P08912 whole entry): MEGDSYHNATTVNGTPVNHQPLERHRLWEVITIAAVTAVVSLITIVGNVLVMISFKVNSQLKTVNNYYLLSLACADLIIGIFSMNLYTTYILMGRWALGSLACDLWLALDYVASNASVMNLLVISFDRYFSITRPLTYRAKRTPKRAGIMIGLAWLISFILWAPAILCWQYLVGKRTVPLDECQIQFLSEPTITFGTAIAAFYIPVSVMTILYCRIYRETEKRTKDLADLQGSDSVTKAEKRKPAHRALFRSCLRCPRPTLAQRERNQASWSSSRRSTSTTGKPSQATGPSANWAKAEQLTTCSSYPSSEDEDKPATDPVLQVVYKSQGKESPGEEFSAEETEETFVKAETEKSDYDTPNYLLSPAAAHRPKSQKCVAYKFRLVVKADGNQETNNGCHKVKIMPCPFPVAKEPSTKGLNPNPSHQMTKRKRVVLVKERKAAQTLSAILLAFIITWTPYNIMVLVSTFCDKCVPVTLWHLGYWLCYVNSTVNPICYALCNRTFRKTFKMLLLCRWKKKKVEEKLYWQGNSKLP
Structure (SMILES),IC50 (Substance-K receptor; cho),IC50 [1],Ki [1],IC50 (Cytochrome P450 1A2),Ki (Cytochrome P450 1A2),IC50 [2],Ki [2],IC50 [3],Ki [3],IC50 [4],IC50 ([5]; cho-k1),IC50 (Substance-K receptor; read-out: IC50),Ki (Substance-K receptor; read-out: Ki),IC50 ([5]; read-out: IC50),Ki ([5]; read-out: Ki)
CC(C)(C)NCC(O)c1cc(Cl)c(N)c(Cl)c1 (stereo unspecified) [CLENBUTEROL],Not Active,Not Active,Not Active,Not Active,Not Active,Not Active,Not Active,Not Active,Not Active,Not Active,Not Active,,,,
CC1Cc2ccccc2N1NC(=O)c1ccc(Cl)c(S(N)(=O)=O)c1 (stereo unspecified) [INDAPAMIDE],Not Active,Not Active,Not Active,Not Active,Not Active,Not Active,Not Active,Not Active,Not Active,Not Active,Not Active,,,,
COc1cc2nc(N3CCN(C(=O)C4COc5ccccc5O4)CC3)nc(N)c2cc1OC (stereo unspecified) [DOXAZOSIN],Not Active,Not Active,Not Active,Not Active,Not Active,Not Active,Not Active,Not Active,Not Active,Not Active,Not Active,,,,
CCC(C)n1ncn(-c2ccc(N3CCN(c4ccc(OCC5COC(Cn6cncn6)(c6ccc(Cl)cc6Cl)O5)cc4)CC3)cc2)c1=O (stereo unspecified) [ITRACONAZOLE],Not Active,Not Active,Not Active,Not Active,Not Active,Not Active,Not Active,Not Active,Not Active,Not Active,Not Active,,,,
O=c1oc2ccccc2c(O)c1Cc1c(O)c2ccccc2oc1=O [DICUMAROL],Not Active,Not Active,Not Active,Not Active,Not Active,Not Active,Not Active,Not Active,Not Active,Not Active,Not Active,,,,
CC(C)C(Br)C(=O)NC(N)=O (stereo unspecified) [BROMISOVALUM],Not Active,Not Active,Not Active,Not Active,Not Active,Not Active,Not Active,Not Active,Not Active,Not Active,Not Active,,,,
CCCCN1CCCC[C@H]1C(=O)Nc1c(C)cccc1C [LEVOBUPIVACAINE],Not Active,Not Active,Not Active,Not Active,Not Active,Not Active,Not Active,Not Active,Not Active,Not Active,Not Active,,,,
CCCC1O[C@@H]2C[C@H]3[C@@H]4CCC5=CC(=O)C=C[C@]5(C)[C@H]4[C@@H](O)C[C@]3(C)[C@]2(C(=O)CO)O1 (stereo partly specified) [BUDESONIDE],Not Active,Not Active,Not Active,Not Active,Not Active,Not Active,Not Active,Not Active,Not Active,Not Active,Not Active,,,,
O=C(O)CCCc1ccc(N(CCCl)CCCl)cc1 [CHLORAMBUCIL],Not Active,Not Active,Not Active,Not Active,Not Active,Not Active,Not Active,Not Active,Not Active,Not Active,Not Active,,,,
CC1(C)O[C@@H]2C[C@H]3[C@@H]4CCC5=CC(=O)CC[C@]5(C)[C@@]4(F)[C@@H](O)C[C@]3(C)[C@]2(C(=O)CCl)O1 [HALCINONIDE],Not Active,Not Active,Not Active,Not Active,Not Active,Not Active,Not Active,Not Active,Not Active,Not Active,Not Active,,,,
COc1cc2c3cc1Oc1cc(ccc1O)C[C@@H]1c4c(cc(OC)c(O)c4Oc4ccc(cc4)C[C@@H]3N(C)CC2)CC[N+]1(C)C.[Cl-],Not Active,Not Active,Not Active,Not Active,Not Active,Not Active,Not Active,Not Active,Not Active,Not Active,Not Active,,,,
CNCCCN1c2ccccc2CCc2ccccc21 [DESIPRAMINE],Not Active,Not Active,Not Active,Not Active,Not Active,Not Active,Not Active,Not Active,Not Active,Not Active,Not Active,,,,
C[C@]12CC[C@@H]3c4ccc(O)cc4CC[C@H]3[C@@H]1CCC2=O [ESTRONE],Not Active,Not Active,Not Active,,,Not Active,Not Active,Not Active,Not Active,Not Active,Not Active,,,,
C[C@]12CCC(=O)C=C1CC[C@@H]1[C@@H]2CC[C@@]2(C)[C@H]1CC[C@]2(C)O [METHYLTESTOSTERONE],Not Active,Not Active,Not Active,Not Active,Not Active,Not Active,Not Active,Not Active,Not Active,Not Active,Not Active,,,,
CC(=O)O[C@@]12CO[C@@H]1C[C@H](O)[C@@]1(C)C(=O)[C@H](O)C3=C(C)[C@@H](OC(=O)[C@H](O)[C@@H](NC(=O)OC(C)(C)C)c4ccccc4)C[C@@](O)([C@@H](OC(=O)c4ccccc4)[C@H]21)C3(C)C.O.O.O [DOCETAXEL],,Not Active,Not Active,Not Active,Not Active,Not Active,Not Active,Not Active,Not Active,Not Active,Not Active,1560 nM,521 nM,,
C[C@](N)(Cc1ccc(O)c(O)c1)C(=O)O [METHYLDOPA],Not Active,Not Active,Not Active,Not Active,Not Active,Not Active,Not Active,Not Active,Not Active,Not Active,Not Active,,,,
CN(C)CCCN1c2ccccc2Sc2ccccc21 [PROMAZINE],Not Active,Not Active,Not Active,,,Not Active,Not Active,Not Active,Not Active,Not Active,,,,64 nM,46 nM
CC1CC(OC(=O)C(O)c2ccccc2)CC(C)(C)C1 (stereo unspecified) [CYCLANDELATE],Not Active,Not Active,Not Active,Not Active,Not Active,Not Active,Not Active,Not Active,Not Active,Not Active,Not Active,,,,
